Assay results from patent US20220227745A1, “Compounds For Modulating FXR” (NANJING RUIJIE PHARMA TECH CO., LTD., priority 2019, published 2022).

Assays:
[1] = biological target: T1, FXR LBD, GST (Homo sapiens, UniProt Q96RI1); test: FXR Binding Assay (TR-FRET, Fluorescein-SRC2-2 coactivator peptide); details: for Emax / Pct Effect (Emax %): % Activity relative to positive control; for Emax: read-out: Pct Effect (Emax %); for EC50: TR-FRET FXR LBD coactivator recruitment
T1 construct: FXR LBD, GST; purchased Invitrogen PV4834
T1 sequence (Q96RI1 262-486 limits assumed): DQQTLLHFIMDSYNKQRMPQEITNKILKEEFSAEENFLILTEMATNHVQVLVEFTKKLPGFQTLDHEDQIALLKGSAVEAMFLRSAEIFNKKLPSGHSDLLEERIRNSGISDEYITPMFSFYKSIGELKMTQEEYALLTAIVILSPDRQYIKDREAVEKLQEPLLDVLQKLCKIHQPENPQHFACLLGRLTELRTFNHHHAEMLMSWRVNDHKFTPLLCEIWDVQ

[2] = biological target: T2, hFXR-LBD (FXR-GAL4 chimeric receptor) (Homo sapiens, UniProt Q96RI1); test: FXR Transactivation Assay (GAL4 luciferase reporter in HEK293T cells); assay type: cell-based
T2 construct: host or cells: HEK293T
T2 sequence (Q96RI1 262-486 limits assumed): T1 sequence (Q96RI1 262-486 limits assumed)
Description: FXR Transactivation Assay
The present compounds were tested to assess their ability to stimulate FXR transactivation activity. The hFXR-LBD, coding sequence was inserted into the pBIND expression vector (Promega, E1581) to express FXR-GAL4 binding domain chimeric receptors. This expression vector and reporter vector (pGL4.35 which carry a stably integrated GAL4 promoter driven luciferase reporter gene) were co-transfected into HEK293T host cells. Upon agonist binding to the corresponding FXR-GAL4 chimeric receptor, the chimeric receptor binds to the GAL4 binding sites and stimulates the reporter gene.
All the working stock were shake for 5 min on plate shaker (QILINBEIER). Second, all cells were cultured as ATCC recommended. HEK293T cells were assayed in exponential growth phase. Removed culture medium from the flask and rinsed cells with PBS. Added TrypLE solution to the flask and make cells detach. Next, cells were washed once with complete growth medium. Then, cells were pelleted and washed twice with PBS to remove phenol red and resuspend them in medium to a proper concentration. Only cells with viability greater than 90% were used for assays. Seeded 6×10^6 HEK293T cells into a 100 mm dish and incubated at 37° C. under 5% CO2 atmosphere for 16 h. Third, Trans-IT reagent and Opti-MEM mix by inversion and incubate 5 min at room temperature. The cell transfection was performed by mixing DNA and the reagent mixture, as well as 6 μg GAL4-FXR plasmid or 2 μg pGL4.35 luciferase plasmid, respectively. The reagent mixture was added to a 100 mm dish and incubated for 4-7 hrs at 37° C. under 5% CO2 atmosphere. Fourth, transferred 75 nl compound dilutions into 384-well assay plates (PerkinElmer) and seeded HEK293T cells at 17,000 cells/well using phenol red-free DMEM containing 5% charcoal/dextran-treated FBS. Then, cells were incubated for 16-20 h at 37° C. under 5% CO2 atmosphere. Finally, added 25 μl Steady-Glo™ Luciferase Assay Reagent into each well of 384-well assay plate, and then shake plate for 5 min protected from light on a plate shaker. Then, the luminescence value was read on Evision 2104 plate reader (PerkinElmer).
The activity ratio was calculated as follow: […]
RLU: Resulting Luminescence
RLUpositive: The average RLU for the positive controls across the plate.
RLUvehicle: The average RLU for negative controls across the plate.
EC50 was calculated by fitting % Activity values and log of compound concentrations to nonlinear regression (dose response-variable slope) with GraphPad 5.0.
X: log of compound concentration.

[3] = biological target: T3, FXR (Homo sapiens, UniProt Q96RI1); details: cited from earlier work
T3 sequence (Q96RI1 1-486): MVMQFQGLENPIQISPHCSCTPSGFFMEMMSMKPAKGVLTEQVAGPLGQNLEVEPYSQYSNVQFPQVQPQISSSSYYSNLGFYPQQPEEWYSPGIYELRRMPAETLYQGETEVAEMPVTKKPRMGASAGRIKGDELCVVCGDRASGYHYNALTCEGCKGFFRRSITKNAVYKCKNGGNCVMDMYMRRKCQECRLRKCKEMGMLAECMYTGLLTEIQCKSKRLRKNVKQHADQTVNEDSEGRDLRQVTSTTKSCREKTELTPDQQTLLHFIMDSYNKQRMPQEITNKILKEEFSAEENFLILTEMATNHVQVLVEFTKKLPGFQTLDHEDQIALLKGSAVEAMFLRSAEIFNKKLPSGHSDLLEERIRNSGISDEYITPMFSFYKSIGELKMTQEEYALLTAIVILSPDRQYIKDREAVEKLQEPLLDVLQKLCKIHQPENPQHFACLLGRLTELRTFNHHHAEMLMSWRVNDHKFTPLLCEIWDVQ

[4] = in vivo; cited from earlier work
[5] = cited from earlier work
[6] = system: other nuclear receptor; details: cited from earlier work
[7] = preclinical species; cited from earlier work
[8] = OCA treatment, clinical studies; cited from earlier work

| Compound | Emax [1] [%] | EC50 [1] [µM] | EC50 [2] [µM] | also measured |
| --- | --- | --- | --- | --- |
| CC(CN1CCN(c2ccc3c(C(=O)O)cn(C)c3c2)CC1)c1c(-c2c(Cl)cccc2Cl)noc1C1CC1 (stereo not drawn) [Example I24, 6-(4-(2-(5-cyclopropyl-3-(2,6-dichlorophenyl)isoxazol-4-yl)propyl)piperazin-1-yl)-1-methyl-1H-indole-3-carboxylic Acid] | 89.8 | 0.422 | 1.86 | – |
| Cn1cc(C(=O)O)c2ccc(N3CCN(CCc4c(-c5c(Cl)cccc5Cl)noc4C4CC4)CC3(C)C)cc21 [Example I25, 6-(4-(2-(5-cyclopropyl-3-(2,6-dichlorophenyl)isoxazol-4-yl)ethyl)-2,2-dimethylpiperazin-1-yl)-1-methyl-1H-indole-3-carboxylic Acid] | 151 | 0.083 | 0.288 | – |
| Cn1cc(C(=O)O)c2ccc(N3CCN(CCc4c(-c5ccccc5C(F)(F)F)noc4C4CC4)CC3)cc21 [Example I26, 6-(4-(2-(5-cyclopropyl-3-(2-(trifluoromethyl)phenyl)isoxazol-4-yl)ethyl)piperazin-1-yl)-1-methyl-1H-indole-3-carboxylic Acid] | 214 | 0.882 | 1.21 | – |
| Cc1onc(-c2c(Cl)cccc2Cl)c1CCN1CCN(c2ccc3c(C(=O)O)cn(C)c3c2)CC1 [Example I27, 6-(4-(2-(3-(2,6-dichlorophenyl)-5-methylisoxazol-4-yl)ethyl)piperazin-1-yl)-1-methyl-1H-indole-3-carboxylic Acid] | 91.1 | 0.454 | 1.8 | – |
| Cn1cc(C(=O)O)c2ccc(N3C4CCC3CN(CCc3c(-c5c(Cl)cccc5Cl)noc3C3CC3)C4)cc21 [Example I30, 6-(3-(2-(5-cyclopropyl-3-(2,6-dichlorophenyl)isoxazol-4-yl)ethyl)-3,8-diazabicyclo[3.2.1]octan-8-yl)-1-methyl-1H-indole-3-carboxylic Acid] | 111 | 0.06 | 1.2 | – |
| C[C@@H]1CN(c2ccc3c(C(=O)O)cn(C)c3c2)CCN1CCc1c(-c2c(Cl)cccc2Cl)noc1C1CC1 [Example I35, (R)-6-(4-(2-(5-cyclopropyl-3-(2,6-dichlorophenyl)isoxazol-4-yl)ethyl)-3-methylpiperazin-1-yl)-1-methyl-1H-indole-3-carboxylic Acid] | 156 | 0.097 | 0.494 | – |
| Cn1cc(C(=O)O)c2ccc(C3CCN(CCc4c(-c5c(Cl)cccc5Cl)noc4C4CC4)CC3)cc21 [Example I36, 6-(1-(2-(5-cyclopropyl-3-(2,6-dichlorophenyl)isoxazol-4-yl)ethyl)piperidin-4-yl)-1-methyl-1H-indole-3-carboxylic Acid] | 161 | 0.094 | 0.577 | – |
| C[C@H]1CN(c2ccc3c(C(=O)O)cn(C)c3c2)CCN1CCc1c(-c2c(Cl)cccc2Cl)noc1C1CC1 [Example I37, (S)-6-(4-(2-(5-cyclopropyl-3-(2,6-dichlorophenyl)isoxazol-4-yl)ethyl)-3-methylpiperazin-1-yl)-1-methyl-1H-indole-3-carboxylic Acid] | 232 | 0.101 | 0.574 | – |
| Cn1cc(C(=O)O)c2ccc(N3CCN(CCc4c(-c5c(Cl)cccc5Cl)noc4C4CC4)C(C)(C)C3)cc21 [Example I38, 6-(4-(2-(5-cyclopropyl-3-(2,6-dichlorophenyl)isoxazol-4-yl)ethyl)-3,3-dimethylpiperazin-1-yl)-1-methyl-1H-indole-3-carboxylic Acid] | 133 | 0.048 | 0.377 | – |
| C[C@@H]1CN(CCc2c(-c3c(Cl)cccc3Cl)noc2C2CC2)CCN1c1ccc2c(C(=O)O)cn(C)c2c1 [Example I40, (R)-6-(4-(2-(5-cyclopropyl-3-(2,6-dichlorophenyl)isoxazol-4-yl)ethyl)-2-methylpiperazin-1-yl)-1-methyl-1H-indole-3-carboxylic Acid] | 131 | 0.077 | 0.343 | – |
| Cn1cc(C(=O)O)c2cc(F)c(N3CCN(CCc4c(-c5c(Cl)cccc5Cl)noc4C4CC4)CC3)cc21 [Example I42, 6-(4-(2-(5-cyclopropyl-3-(2,6-dichlorophenyl)isoxazol-4-yl)ethyl)piperazin-1-yl)-5-fluoro-1-methyl-1H-indole-3-carboxylic Acid] | – | 0.099 | 0.551 | Pct Effect (Emax %) [1]: 196.20% |
| Cn1cc(C(=O)O)c2cc(F)c(N3CCN(CCc4c(-c5c(Cl)cccc5Cl)noc4C4CC4)CC3)cc21 [Example I45, 6-(4-(2-(5-cyclopropyl-3-(2,6-dichlorophenyl)isoxazol-4-yl)ethyl)piperazin-1-yl)-5-fluoro-1-methyl-1H-indole-3-carboxylic Acid] | – | 0.072 | 0.224 | Pct Effect (Emax %) [1]: 161.70% |
| CN(Cc1c(-c2c(Cl)cccc2Cl)noc1C1CC1)C1CCN(c2ccc3c(C(=O)O)cn(C)c3c2)CC1 [Example I58, 6-(4-(((5-cyclopropyl-3-(2,6-dichlorophenyl)isoxazol-4-yl)methyl)(methyl)amino)piperidin-1-yl)-1-methyl-1H-indole-3-carboxylic Acid] | 83.4 | 0.497 | 2.27 | – |
| CC(C)c1onc(-c2c(Cl)cccc2Cl)c1COc1ccc(/C=C/c2cccc(C(=O)O)c2)c(Cl)c1 [GW4604] | – | – | – | agonistic activity to FXR [3]: strong agonistic activity; bioavailability [4]: low bioavailability |
| O=C(O)c1cc(F)c2nc(N3[C@@H]4CC[C@H]3C[C@@H](OCc3c(-c5ccccc5OC(F)(F)F)noc3C3CC3)C4)sc2c1 [LJN452] | – | – | – | drug-related pruritus ([5]; after multiple doses): No drug-related pruritus was observed; ALT/AST ([5]; individual subjects): ALT/AST increased in individual subjects; drug-related adverse reactions ([5]; single dose of up to 3 mg): No drug-related adverse reactions were observed; safety and tolerability ([5]; single dose of up to 3 mg): performed well in safety and tolerability |
| Cn1cc(C(=O)O)c2ccc(N3CCC(OCc4c(-c5c(Cl)cccc5Cl)noc4C4CC4)CC3)cc21 [LY-2562175] | – | – | – | transcriptional activation of other nuclear receptor [6]: didn't promote transcriptional activation of other nuclear receptor; effect on LDL, triglycerides and HDL [7]: lowered LDL and triglycerides while raising HDL |
| CC[C@H]1[C@@H](O)[C@@H]2[C@H](CC[C@]3(C)[C@@H]([C@H](C)CCC(=O)O)CC[C@@H]23)[C@@]2(C)CC[C@@H](O)C[C@@H]12 [OCA, 6α-ethyl-chenodeoxycholic acid] | – | – | – | pruritus [8]: may be associated with increased pruritus |
